Reference: patent US10023519B2, “Cyclobutane containing carboxylic acid GPR120 modulators” (BRISTOL-MYERS SQUIBB COMPANY, priority 2014, dated 2018)

Assays:
[1] = molecular target: human GPR120 (Homo sapiens (Human), UniProt Q5NUL3); assay: GPR120 pERK AlphaScreen SureFire Assay (human); type: cell-based; conditions: CHO cells stably transfected with short form of human GPR120
Description: GPR120 activity was monitored by measuring phosphorylation of ERK (pERK), since G protein receptors are known to activate the ERK signaling cascade either directly and/or through recruitment of arrestin that serves as a scaffold for downstream signaling events.
GPR120 pERK AlphaScreen SureFire Assay
The human and mouse GPR120-mediated intracellular phosphorylated ERK assays were established using CHOA12 cells stably transfected with the short form of human or mouse GPR120 receptor. […] Cells were cryo preserved at a concentration of 2×10^7 cells/mL, in 90% Charcoal/Dextran FBS and 10% DMSO, and frozen in liquid nitrogen at a low passage number.
The flasks were placed in a tissue culture incubator overnight (37° C., 5% CO2). […] The next day, cells were serum starved in 30 μL of F-12 media without any serum or antibiotics for 2 hours at 37° C.
Cells were then stimulated with 50 nL of compound dilutions using ECHO liquid handler for 7 minutes at 37° C.
(§1) The lysis buffer was diluted 5-fold with water before use. […] The SureFire assay reagent mix was prepared by mixing 60 parts Reaction Buffer, 10 parts Activation Buffer, 1 part Donor Beads, 1 part Acceptor Beads (Perkin Elmer Cat. #TGRES10K). 3.5 μL/well of this reagent mix was manually added to the proxiplate with a multichannel pipettor. Plates were spun down at 1000 rpm for 2 minutes, followed by light-protected incubation at room temperature for 2 hours. The plates were read on the Alpha-technology compatible Envision multilabel plate reader using AlphaScreen protocol according to manufacturer's specifications. The agonist effect of compounds was expressed as 100× (average sample−average blank)/(average total−average blank) where sample is the luminescence activity in the presence of test compound, blank is equal to the luminescence activity in the presence of DMSO control and the total is signal induced by 50 μM linolenic acid as reference compound. Activation data for the test compound over a range of concentrations was plotted as percentage activation of the test compound (100%=maximum response). After correcting for background, EC50 values were determined.
The human and mouse GPR120-mediated intracellular phosphorylated ERK assays were also established using CHO-K1 cells stably transfected with the short form of human or mouse GPR120 receptor. […] Cells were cryo preserved at a concentration of 3×10^6 cells/mL, in 70% F-12, 20% Charcoal/Dextran FBS and 10% DMSO, and frozen in liquid nitrogen at a low passage number.
The flasks were placed in a tissue culture incubator overnight (37° C., 5% CO2).
Cells were then stimulated with 40 nL of compound dilutions using ECHO liquid handler for 7 minutes at 37° C.
as §1, with “compound.” for “compound. Activation data for the test compound over a range of concentrations was plotted as percentage activation of the test compound (100%=maximum response). After correcting for background, EC50 values were determined.”
Activation data for the test compound over a range of concentrations was plotted as percentage activation of the test compound (100%=maximum response). After correcting for background, EC50 values were determined.

[2] = test system: C57BL/6 mice; assay: Acute Oral Glucose Tolerance Test; type: in vivo, mouse; conditions: dosed at 30 mg/kg orally 60 min before glucose challenge (2 g/kg), AUC t=0-120 min compared to vehicle
Method: In Vivo GPR120 Assays 1) Acute Oral Glucose Tolerance Test
C57BL/6 mice were housed individually and fed a standard rodent chow diet. At approximately 11 weeks age, after a 5 h fast, these mice were orally treated with vehicle or test compounds 60 min before a glucose challenge (2 g/kg). Blood glucose levels were determined from tail bleeds taken at −60, 0, 15, 30, 60 and 120 min after the glucose challenge. […] This AUC for compound treatment is compared to vehicle treatment.

Sequence of human GPR120 (Q5NUL3 whole entry): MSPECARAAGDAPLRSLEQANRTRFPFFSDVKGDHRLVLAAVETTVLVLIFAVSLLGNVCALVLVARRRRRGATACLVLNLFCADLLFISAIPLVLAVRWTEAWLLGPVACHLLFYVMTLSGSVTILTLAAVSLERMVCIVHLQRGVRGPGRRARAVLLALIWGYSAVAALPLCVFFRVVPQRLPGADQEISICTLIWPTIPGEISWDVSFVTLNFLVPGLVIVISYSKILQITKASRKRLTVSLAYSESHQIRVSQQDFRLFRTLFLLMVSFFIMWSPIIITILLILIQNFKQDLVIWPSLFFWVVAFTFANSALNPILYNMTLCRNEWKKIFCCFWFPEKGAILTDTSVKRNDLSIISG

Row | Structure (SMILES) | EC50 [1] | reduced glucose AUC [2]
1 | O=C(O)CO[C@H]1C[C@@H](c2ccc(-c3cc(Oc4ccccc4)ccc3F)cc2)C1 [Example 1, Cis-2-(-3-(2′-fluoro-5′-phenoxy-[1,1′-biphenyl]-4-yl)cyclobutoxy)acetic acid] | 170 nM | 42%
2 | Cc1nc(-c2ccc(F)c(-c3ccc([C@H]4C[C@@H](OCC(=O)O)C4)cc3)c2)no1 [Example 21, Cis-2-(3-(2′-Fluoro-5′-(5-methyl-1,2,4-oxadiazol-3-yl)-[1,1′-biphenyl]-4-yl)cyclobutoxy)acetic acid] | 550 nM | 
3 | CC(C)Sc1ncc(C(F)(F)F)cc1-c1ccc([C@H]2C[C@@H](OCC(=O)O)C2)cc1 [Example 13, Cis-2-(3-(4-(2-(isopropylthio)-5-(trifluoromethyl)pyridin-3-yl)phenyl)cyclobutoxy)acetic acid] | 2610 nM | 
4 | COc1cc(OC(C)C)cc(-c2ccc([C@H]3C[C@@H](OCC(=O)O)C3)cc2)c1 [Example 19, Cis-2-(3-(3′-isopropoxy-5′-methoxy-[1,1′-biphenyl]-4-yl)cyclobutoxy)acetic acid] | 1590 nM | 
5 | O=C(O)CO[C@H]1C[C@@H](c2ccc(-c3cc(OC(F)(F)F)ccc3Cl)cc2)C1 [Example 8, Cis-2-(3-(2′-chloro-5′-(trifluoromethoxy)-[1,1′-biphenyl]-4-yl)cyclobutoxy)acetic acid] | 900 nM | 
6 | Cc1cc(OC(C)C)cc(-c2ccc([C@H]3C[C@@H](OCC(=O)O)C3)cc2)c1 [Example 12, Cis-2-(3-(3′-isopropoxy-5′-methyl-[1,1′-biphenyl]-4-yl)cyclobutoxy) acetic acid] | 430 nM | 
7 | CC(C)Oc1ccc(F)c(-c2ccc([C@H]3C[C@@H](OCC(=O)O)C3)cc2)c1 [Example 2, Cis-2-(3-(2′-fluoro-5′-isopropoxy-[1,1′-biphenyl]-4-yl)cyclobutoxy)acetic acid] | 530 nM | 
8 | CC(C)Oc1ccc(F)c(-c2ccc(C=C3CC(C(=O)O)C3)cc2)c1 (centres unmarked) [Example 47, 3-((2′-Fluoro-5′-isopropoxy-[1,1′-biphenyl]-4-yl)methylene)cyclobutanecarboxylic acid] | 460 nM | 
9 | Cc1ccc(Oc2ccc(F)c(-c3ccc([C@H]4C[C@@H](OCC(=O)O)C4)cc3)c2)cn1 [Example 20, Cis-2-(3-(2′-fluoro-5′-((6-methylpyridin-3-yl)oxy)-[1,1′-biphenyl]-4-yl)cyclobutoxy) acetic acid] | 270 nM | 
10 | CC(C)Oc1ccc(F)c(-c2ccc(C[C@H]3C[C@@H](CC(=O)O)C3)cc2)c1 [Example 51, 2-(Cis-3-((2′-fluoro-5′-isopropoxy-[1,1′-biphenyl]-4-yl)methyl)cyclobutyl)acetic acid] | 560 nM | 
11 | O=C(O)CO[C@H]1C[C@@H](c2ccc(-c3cc(Oc4ccc(F)cc4)cc(F)c3F)cc2)C1 [Example 34, Cis-2-(3-(2′,3′-difluoro-5′-(4-fluorophenoxy)-[1,1′-biphenyl]-4-yl)cyclobutoxy)acetic acid] | 240 nM | 

Further lines, with some results ahead:

Row | EC50 [1] | Structure (SMILES) | reduced glucose AUC [2]
12 | 470 nM | O=C(O)CCOC[C@H]1C[C@@H](OCc2cccc(Oc3ccccc3)c2)C1 [Example 55, 3-((Cis-3-(3-phenoxybenzyloxy)cyclobutyl)methoxy)propanoic acid] | 
13 | 740 nM | C[C@]1(CCCOCC(=O)O)C[C@@H](c2cccc(Oc3ccccc3)c2)C1 [Example 60, 2-(3-(Cis-1-methyl-3-(3-phenoxyphenyl)cyclobutyl)propoxy)acetic acid] | 
14 | 440 nM | O=C(O)[C@H]1C[C@H](Oc2ccc(-c3cc(Oc4ccccc4)ccc3F)cc2)C1 [Example 64, Trans-3-((2′-fluoro-5′-phenoxy-[1,1′-biphenyl]-4-yl)oxy)cyclobutanecarboxylic acid] | 
15 | 570 nM | C[C@]1(CCCOCCC(=O)O)C[C@@H](c2cccc(Oc3ccccc3)c2)C1 [Example 62, 3-(3-(Cis-1-methyl-3-(3-phenoxyphenyl)cyclobutyl)propoxy)propanoic acid] | 
16 | 140 nM | CC(C)Oc1ccc(F)c(-c2ccc([C@H]3C[C@H](CC(=O)O)C3)cc2)c1 [Example 44, 2-(Trans-3-(2′-fluoro-5′-isopropoxy-[1,1′-biphenyl]-4-yl)cyclobutyl)acetic acid] | 
17 | 2800 nM | COC1(c2cccc(Oc3ccccc3)c2)CC(CCCOCC(=O)O)C1 (centres unmarked) [Example 68, 2-(3-(3-Methoxy-3-(3-phenoxyphenyl)cyclobutyl)propoxy)acetic acid] | 
18 | 2270 nM | O=C(O)[C@H]1C[C@@H](Oc2ccc(-c3cc(Oc4ccccc4)ccc3F)cc2)C1 [Example 65, Cis-3-((2′-fluoro-5′-phenoxy-[1,1′-biphenyl]-4-yl)oxy)cyclobutanecarboxylic acid] | 
19 | 150 nM | C[C@]1(CCCOCC(=O)O)C[C@H](c2cccc(Oc3ccccc3)c2)C1 [Example 61, 2-(3-(Trans-1-methyl-3-(3-phenoxyphenyl)cyclobutyl)propoxy)acetic acid] | 
